One data set concerns the target hCA I (Homo sapiens, UniProt P00915). Put plainly: Stopped-flow CO2 hydrase assay, hCA I. The conditions noted are these: for pKi: stopped flow, mean from 3 assays, errors 5–10%; for Ki: in µM.
The target of the next data set is hCA II (Homo sapiens, UniProt P00918). Put plainly: Stopped-flow CO2 hydrase assay, hCA II.
For a further data set, the target named is hCA IX (Homo sapiens, UniProt Q16790). In words: Stopped-flow CO2 hydrase assay, hCA IX.
For a further data set, the target named is hCA XII (Homo sapiens, UniProt O43570). In words: Stopped-flow CO2 hydrase assay, hCA XII. Particulars: for pKi: stopped flow, mean from 3 assays, errors 5–10%.
Chain of hCA XII (O43570 25-354): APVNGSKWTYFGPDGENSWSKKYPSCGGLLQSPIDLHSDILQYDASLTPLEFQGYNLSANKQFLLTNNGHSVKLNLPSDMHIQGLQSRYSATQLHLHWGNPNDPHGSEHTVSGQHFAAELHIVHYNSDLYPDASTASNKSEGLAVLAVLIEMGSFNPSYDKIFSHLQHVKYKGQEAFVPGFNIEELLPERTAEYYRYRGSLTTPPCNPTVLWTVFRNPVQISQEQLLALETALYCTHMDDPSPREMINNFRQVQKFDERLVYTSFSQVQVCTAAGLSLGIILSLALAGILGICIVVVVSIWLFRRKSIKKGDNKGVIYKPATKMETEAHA

Results on 20 compounds are retold here after paper PMC10038056, “Synthesis, biological evaluation and theoretical studies of (E)-1-(4-sulfamoyl-phenylethyl)-3-arylidene-5-aryl-1H-pyrrol-2(3H)-ones as human carbonic anhydrase inhibitors” (Journal of Enzyme Inhibition and Medicinal Chemistry, 2023).

pKi: −log10 of the molar value.

Chain of hCA I (P00915 whole entry): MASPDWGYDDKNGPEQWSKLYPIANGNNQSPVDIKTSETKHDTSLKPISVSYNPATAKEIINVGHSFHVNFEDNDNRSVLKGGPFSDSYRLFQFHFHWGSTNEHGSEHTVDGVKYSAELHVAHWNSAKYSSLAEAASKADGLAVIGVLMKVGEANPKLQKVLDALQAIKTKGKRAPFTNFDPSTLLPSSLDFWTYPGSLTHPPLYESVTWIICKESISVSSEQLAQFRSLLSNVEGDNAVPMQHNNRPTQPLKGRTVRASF
Method for hCA II: (§1) (AAZ), a commonly used sulphonamide inhibitor was used for comparing the inhibition data. The Inhibition effects of these compounds on enzyme activities were evaluated under in-vitro conditions. The CA catalysed CO2 hydration activity was measured using an Applied Photophysics stopped-flow instrument. […] In the same way, the uncatalyzed rates were analysed and deducted from the total measured rates. […] The inhibitor and enzyme solutions were preincubated at room temperature for 15 min prior to the experiment to promote the formation of the E-I complex. By employing nonlinear least-squares methods using PRISM 3 and the Cheng-Prusoff equation, the inhibition constants were determined, as was previously reported[18–20]^,[21] and indicate the average of at least three separate measurements that fall between the range of 5 and 10%.
Method for hCA IX: as §1
Method for hCA XII: as §1

The compound `NS(=O)(=O)c1ccc(CCN2C(=O)/C(=C/c3ccccc3)C=C2c2ccccc2)cc1` [Compound 3a, (E)-4-(2-(3-benzylidene-2-oxo-5-phenyl-2,3-dihydro-1H-pyrrol-1-yl)ethyl) benzenesulphonamide] came in with a melting point of 167 to 168 °C. In addition, the pKi at hCA I was 6.20. The same compound gave a pKi at hCA II of 6.43. The compound further had a pKi on hCA IX of 7.03. In addition, at hCA XII, the pKi is 7.21.

The compound `NS(=O)(=O)c1ccc(CCN2C(=O)/C(=C/c3ccc(F)cc3)C=C2c2ccccc2)cc1` [Compound 3b, (E)-4-(2-(3-(4-fluorobenzylidene)-2-oxo-5-phenyl-2,3-dihydro-1H-pyrrol-1-yl)ethyl)benzenesulphonamide] came in with a melting point of 170 to 171 °C. This compound showed a pKi at hCA I of 6.43. Further, the negative logarithm of the Ki (pKi) on hCA II is 7.09. Moreover, the negative logarithm of the Ki (pKi) on hCA IX is 7.14. In addition, the pKi at hCA XII is 7.34.

Compound `NS(=O)(=O)c1ccc(CCN2C(=O)/C(=C/c3ccc(Cl)cc3)C=C2c2ccccc2)cc1` [Compound 3c, (E)-4-(2-(3-(4-chlorobenzylidene)-2-oxo-5-phenyl-2,3-dihydro-1H-pyrrol-1-yl)ethyl)benzenesulphonamide] showed a melting point of 192 to 193 °C. On hCA I, this compound had a pKi of 5.49. The pKi on hCA II was 6.14. For the same compound, the pKi on hCA IX was 6.97. At hCA XII, the pKi is 7.12.

`NS(=O)(=O)c1ccc(CCN2C(=O)/C(=C/c3ccc(Br)cc3)C=C2c2ccccc2)cc1` [Compound 3d, (E)-4-(2-(3-(4-bromobenzylidene)-2-oxo-5-phenyl-2,3-dihydro-1H-pyrrol-1-yl)ethyl)benzenesulphonamide] showed a melting point of 214 to 215 °C. The compound also had a pKi on hCA I of 5.37. At hCA II, this compound gave a pKi of 5.85. The same compound gave a pKi at hCA IX of 6.95. On hCA XII, the pKi was 7.05.

The compound `Cc1ccc(C2=C/C(=C\c3ccccc3)C(=O)N2CCc2ccc(S(N)(=O)=O)cc2)cc1` [Compound 3e, (E)-4-(2-(3-benzylidene-2-oxo-5-(p-tolyl)-2,3-dihydro-1H-pyrrol-1-yl)ethyl)benzenesulphonamide] registered a melting point of 189 to 190 °C. In addition, the pKi at hCA I is 5.49. Also, the pKi at hCA II was 6.33. In addition, at hCA IX, the pKi was 6.93. Further, at hCA XII, the pKi is 7.23.

`Cc1ccc(C2=C/C(=C\c3ccc(F)cc3)C(=O)N2CCc2ccc(S(N)(=O)=O)cc2)cc1` [Compound 3f, (E)-4-(2-(3-(4-fluorobenzylidene)-2-oxo-5-(p-tolyl)-2,3-dihydro-1H-pyrrol-1-yl)ethyl)benzenesulphonamide] displayed a melting point of 196 to 197 °C. Moreover, the pKi at hCA I is 5.60. Besides, the pKi at hCA II is 6.83. For the same compound, on hCA IX, the pKi is 6.99. Also, the pKi on hCA XII is 7.37.

Compound `Cc1ccc(C2=C/C(=C\c3ccc(Cl)cc3)C(=O)N2CCc2ccc(S(N)(=O)=O)cc2)cc1` [Compound 3g, (E)-4-(2-(3-(4-chlorobenzylidene)-2-oxo-5-(p-tolyl)-2,3-dihydro-1H-pyrrol-1-yl)ethyl)benzenesulphonamide] registered a melting point of 224 to 225 °C. The pKi at hCA I was 5.36. Besides, the pKi on hCA II is 6.03. On hCA IX, this compound showed a pKi of 7.02. In addition, the pKi at hCA XII is 7.13.

`Cc1ccc(C2=C/C(=C\c3ccc(Br)cc3)C(=O)N2CCc2ccc(S(N)(=O)=O)cc2)cc1` [Compound 3h, (E)-4-(2-(3-(4-bromobenzylidene)-2-oxo-5-(p-tolyl)-2,3-dihydro-1H-pyrrol-1-yl)ethyl)benzenesulphonamide]: the melting point fell in the range of 233 to 234 °C. The same compound gave a pKi at hCA I of 5.38. Moreover, the pKi on hCA II was 5.73. Moreover, at hCA IX, the pKi is 7.07. Also, the pKi on hCA XII was 7.03.

Consider `CCc1ccc(C2=C/C(=C\c3ccccc3)C(=O)N2CCc2ccc(S(N)(=O)=O)cc2)cc1` [Compound 3i, (E)-4-(2-(3-benzylidene-5-(4-ethylphenyl)-2-oxo-2,3-dihydro-1H-pyrrol-1-yl)ethyl)benzenesulphonamide], for which the melting point is 183 to 184 °C. Further, the pKi at hCA I was 5.75. Also, the pKi at hCA II was 6.05. For the same compound, the pKi on hCA IX was 7.11. Moreover, the pKi on hCA XII is 7.08.

For the compound `CCc1ccc(C2=C/C(=C\c3ccc(F)cc3)C(=O)N2CCc2ccc(S(N)(=O)=O)cc2)cc1` [Compound 3j, (E)-4-(2-(5-(4-ethylphenyl)-3-(4-fluorobenzylidene)-2-oxo-2,3-dihydro-1H-pyrrol-1-yl)ethyl)benzenesulphonamide], the melting point was in the range of 185 to 186 °C. Besides, at hCA I, the pKi was 6.08. Also, the pKi at hCA II was 6.53. For the same compound, on hCA IX, the pKi is 7.15. This compound also gave a pKi on hCA XII of 7.18.

In turn, `CCc1ccc(C2=C/C(=C\c3ccc(Cl)cc3)C(=O)N2CCc2ccc(S(N)(=O)=O)cc2)cc1` [Compound 3k, (E)-4-(2-(3-(4-chlorobenzylidene)-5-(4-ethylphenyl)-2-oxo-2,3-dihydro-1H-pyrrol-1-yl)ethyl)benzenesulphonamide] gave a melting point of 186 to 187 °C. In addition, the pKi on hCA I is 5.23. This compound also had a pKi at hCA II of 5.79. For the same compound, the pKi at hCA IX was 6.99. The same compound showed a pKi at hCA XII of 7.04.

Consider `CCc1ccc(C2=C/C(=C\c3ccc(Br)cc3)C(=O)N2CCc2ccc(S(N)(=O)=O)cc2)cc1` [Compound 3l, (E)-4-(2-(3-(4-bromobenzylidene)-5-(4-ethylphenyl)-2-oxo-2,3-dihydro-1H-pyrrol-1-yl)ethyl)benzenesulphonamide], for which the melting point fell in the range of 188 to 189 °C. On hCA I, this compound had a pKi of 5.17. Moreover, the pKi on hCA II is 5.43. This compound also gave a pKi at hCA IX of 7.11. On hCA XII, this compound had a pKi of 7.25.

`NS(=O)(=O)c1ccc(CCN2C(=O)/C(=C/c3ccccc3)C=C2c2ccc(Cl)cc2)cc1` [Compound 3m, (E)-4-(2-(3-benzylidene-5-(4-chlorophenyl)-2-oxo-2,3-dihydro-1H-pyrrol-1-yl)ethyl)benzenesulphonamide] showed a melting point of 189 to 190 °C. At hCA I, the pKi was 5.65. For the same compound, the pKi at hCA II is 6.11. At hCA IX, this compound gave a pKi of 7.26. Besides, the pKi on hCA XII was 7.21.

As for `NS(=O)(=O)c1ccc(CCN2C(=O)/C(=C/c3ccc(F)cc3)C=C2c2ccc(Cl)cc2)cc1` [Compound 3n, (E)-4-(2-(5-(4-chlorophenyl)-3-(4-fluorobenzylidene)-2-oxo-2,3-dihydro-1H-pyrrol-1-yl)ethyl)benzenesulphonamide], the melting point fell in the range of 159 to 160 °C. Also, the pKi on hCA I was 5.85. On hCA II, this compound showed a pKi of 6.33. The compound further gave a pKi at hCA IX of 7.38. Also, at hCA XII, the pKi was 7.41.

`NS(=O)(=O)c1ccc(CCN2C(=O)/C(=C/c3ccc(Cl)cc3)C=C2c2ccc(Cl)cc2)cc1` [Compound 3o, (E)-4-(2-(3-(4-chlorobenzylidene)-5-(4-chlorophenyl)-2-oxo-2,3-dihydro-1H-pyrrol-1-yl)ethyl)benzenesulphonamide] yielded a melting point of 163 to 164 °C. Moreover, the pKi at hCA I was 5.29. Moreover, on hCA II, the pKi was 5.72. On hCA IX, this compound showed a pKi of 7.16. For the same compound, the pKi on hCA XII is 7.10.

In turn, `NS(=O)(=O)c1ccc(CCN2C(=O)/C(=C/c3ccc(Br)cc3)C=C2c2ccc(Cl)cc2)cc1` [Compound 3p, (E)-4-(2-(3-(4-bromobenzylidene)-5-(4-chlorophenyl)-2-oxo-2,3-dihydro-1H-pyrrol-1-yl)ethyl)benzenesulphonamide] showed a melting point of 176 to 177 °C. This compound gave a pKi on hCA I of 5.23. At hCA II, the pKi was 5.41. The pKi at hCA IX was 7.13. Besides, the pKi on hCA XII is 7.07.

`CC(C)(C)c1ccc(C2=C/C(=C\c3ccccc3)C(=O)N2CCc2ccc(S(N)(=O)=O)cc2)cc1` [Compound 3q, (E)-4-(2-(3-benzylidene-5-(4-(tert-butyl)phenyl)-2-oxo-2,3-dihydro-1H-pyrrol-1-yl)ethyl)benzenesulphonamide]: the melting point is 183 to 184 °C. At hCA I, this compound had a Ki of 8.5 µM and a pKi of 5.07. Besides, the pKi on hCA II was 5.78. On hCA IX, this compound gave a pKi of 6.33. This compound gave a pKi on hCA XII of 6.40.

As to `CC(C)(C)c1ccc(C2=C/C(=C\c3ccc(F)cc3)C(=O)N2CCc2ccc(S(N)(=O)=O)cc2)cc1` [Compound 3r, (E)-4-(2-(5-(4-(tert-butyl)phenyl)-3-(4-fluorobenzylidene)-2-oxo-2,3-dihydro-1H-pyrrol-1-yl)ethyl)benzenesulphonamide], the melting point was in the range of 187 to 188 °C. This compound also showed a pKi at hCA I of 5.22. The same compound gave a pKi at hCA II of 5.90. The compound also showed a pKi at hCA IX of 6.38. The pKi at hCA XII is 6.45.

In turn, `CC(C)(C)c1ccc(C2=C/C(=C\c3ccc(Cl)cc3)C(=O)N2CCc2ccc(S(N)(=O)=O)cc2)cc1` [Compound 3s, (E)-4-(2-(5-(4-(tert-butyl)phenyl)-3-(4-chlorobenzylidene)-2-oxo-2,3-dihydro-1H-pyrrol-1-yl)ethyl)benzenesulphonamide] returned a melting point of 196 to 197 °C. For the same compound, on hCA I, the pKi was 5.10. Moreover, at hCA II, the pKi was 5.36. This compound gave a pKi at hCA IX of 6.36. On hCA XII (in µM), this compound came in with a Ki of 0.34 µM. The same compound showed a pKi at hCA XII of 6.47.

Take `CC(C)(C)c1ccc(C2=C/C(=C\c3ccc(Br)cc3)C(=O)N2CCc2ccc(S(N)(=O)=O)cc2)cc1` [Compound 3t, (E)-4-(2-(3-(4-bromobenzylidene)-5-(4-(tert-butyl)phenyl)-2-oxo-2,3-dihydro-1H-pyrrol-1-yl)ethyl)benzenesulphonamide]: the melting point is 204 to 205 °C. At hCA I, this compound showed a Ki of 9.3 µM and a pKi of 5.03. The compound further showed a pKi on hCA II of 5.33. For the same compound, the pKi on hCA IX is 6.41. The compound also gave a negative logarithm of the Ki (pKi) at hCA XII of 6.51.
